Test results published in ChEMBL document CHEMBL1149249 (J Med Chem, 2004).

What was measured:
Adenosine receptor A2a = Adenosine receptor A2a (Rattus norvegicus, UniProt P30543); assay: Displacement of [3H]ZM241385 from adenosine A2A receptor in rat brain membrane; assay type: cell membranes
Adenosine receptor A1 = molecular target: T1, Adenosine receptor A1 (Rattus norvegicus, UniProt P25099); assay: Displacement of [3h]DPCPX from adenosine A receptor in rat cerebral cortex membrane
T1 sequence (P25099 whole entry): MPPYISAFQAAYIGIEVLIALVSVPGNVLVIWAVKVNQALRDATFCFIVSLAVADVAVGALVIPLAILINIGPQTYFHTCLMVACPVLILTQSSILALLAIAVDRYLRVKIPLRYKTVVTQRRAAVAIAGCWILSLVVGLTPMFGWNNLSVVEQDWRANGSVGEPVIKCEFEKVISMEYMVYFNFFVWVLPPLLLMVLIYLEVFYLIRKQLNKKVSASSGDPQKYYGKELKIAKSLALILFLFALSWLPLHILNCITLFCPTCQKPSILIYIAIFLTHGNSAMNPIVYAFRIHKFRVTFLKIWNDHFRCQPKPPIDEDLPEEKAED

Sequence of Adenosine receptor A2a (P30543 whole entry): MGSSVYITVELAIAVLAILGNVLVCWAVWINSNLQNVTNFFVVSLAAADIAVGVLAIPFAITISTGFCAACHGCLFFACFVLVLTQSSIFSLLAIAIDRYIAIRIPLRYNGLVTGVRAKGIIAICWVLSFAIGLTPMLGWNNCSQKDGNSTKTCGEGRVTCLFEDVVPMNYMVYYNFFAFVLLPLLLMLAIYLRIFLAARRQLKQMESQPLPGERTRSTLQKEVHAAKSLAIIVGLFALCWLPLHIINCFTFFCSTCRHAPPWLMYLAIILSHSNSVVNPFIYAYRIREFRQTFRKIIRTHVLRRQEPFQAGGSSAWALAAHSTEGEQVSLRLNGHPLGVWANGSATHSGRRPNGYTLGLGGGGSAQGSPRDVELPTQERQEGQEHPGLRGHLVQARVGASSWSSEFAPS

Row | SMILES | Ki (Adenosine receptor A2a) | Ki (Adenosine receptor A1)
1 | Nc1nc(N2CCN3CCC[C@H]3C2)cc2nc(-c3ccco3)nn12 | 110 nM (antagonist) | > 500 nM
2 | Nc1nc(N2CCN3C[C@H](CNc4ncccn4)CC[C@H]3C2)nc2nc(-c3ccco3)nn12 | 45 nM (antagonist) | > 1000 nM
3 | Nc1nc(N2CCN3C[C@@H](CN(Cc4ccco4)Cc4ccco4)CC[C@H]3C2)nc2nc(-c3ccco3)nn12 | 47 nM (antagonist) | > 1000 nM
4 | Nc1nc(NC[C@@H]2CC[C@@H]3CN(Cc4ccc(F)cc4F)CCN3C2)cc2nc(-c3ccco3)nn12 | 230 nM (antagonist) | > 1000 nM
5 | Nc1nc(N2CCN3C[C@@H](CNCc4ccc(F)cc4F)CC[C@H]3C2)nc2nc(-c3ccco3)nn12 | 2 nM (antagonist) | 1100 nM
6 | Nc1cc(N2CCN3CCC[C@H]3C2)nc2nc(-c3ccco3)nn12 | 170 nM (antagonist) | > 500 nM
7 | Nc1nc(N2CCN3C[C@H](CN(Cc4cccnc4)Cc4cccnc4)CC[C@H]3C2)nc2nc(-c3ccco3)nn12 | 4 nM (antagonist) | 7800 nM
8 | Nc1nc(N2CCN3C[C@@H](CNc4ncccn4)CC[C@H]3C2)cc2nc(-c3ccco3)nn12 | 47 nM (antagonist) | > 1000 nM
9 | Nc1nc(N2CCN3C[C@H](COc4ccc5ccccc5n4)CC[C@H]3C2)nc2nc(-c3ccco3)nn12 | 7 nM (antagonist) | > 1000 nM
10 | NC[C@@H]1CC[C@H]2CN(c3nc(N)n4nc(-c5ccco5)nc4n3)CCN2C1 | 2 nM (antagonist) | 3500 nM
11 | Nc1nc(N2CCN3C[C@@H](CN(Cc4ccc(F)cc4F)Cc4ccc(F)cc4F)CC[C@H]3C2)nc2nc(-c3ccco3)nn12 | > 500 nM | > 1000 nM
12 | Nc1nc(N2C[C@@H]3CCCN3C[C@@H]2Cc2ccccc2)nc2nc(-c3ccco3)nn12 | 490 nM (antagonist) | > 1000 nM
13 | Nc1nc(N2CCN3C[C@@H](CN(Cc4ccccn4)Cc4ccccn4)CC[C@H]3C2)nc2nc(-c3ccco3)nn12 | 9 nM (antagonist) | > 500 nM
14 | Nc1nc(N2CCN3C[C@@H](CN(Cc4cccnc4)Cc4cccnc4)CC[C@H]3C2)nc2nc(-c3ccco3)nn12 | 2 nM (antagonist) | > 1000 nM
15 | Cc1nn(C)c(Cl)c1CN(Cc1c(C)nn(C)c1Cl)C[C@H]1CC[C@H]2CN(c3nc(N)n4nc(-c5ccco5)nc4n3)CCN2C1 | 180 nM (antagonist) | > 1000 nM
16 | NC[C@@H]1CC[C@H]2CN(c3cc(N)n4nc(-c5ccco5)nc4n3)CCN2C1 | 370 nM (antagonist) | > 500 nM
17 | NC[C@H]1CC[C@H]2CN(c3cc(N)n4nc(-c5ccco5)nc4n3)CCN2C1 | 110 nM (antagonist) | > 500 nM
18 | Nc1nc(N2CCN3C[C@@H](CNCc4cccnc4)CC[C@H]3C2)nc2nc(-c3ccco3)nn12 | 51 nM (antagonist) | > 500 nM
19 | Nc1nc(N2CCNCC2)nc2nc(-c3ccco3)nn12 | > 5000 nM | 

Row | SMILES | Ki (Adenosine receptor A2a) | Ki (Adenosine receptor A1)
20 | Nc1nc(N2CCN3CCC[C@@H]3C2)cc2nc(-c3ccco3)nn12 | 63 nM (antagonist) | 1100 nM
21 | NC[C@H]1CC[C@H]2CN(c3cc4nc(-c5ccco5)nn4c(N)n3)CCN2C1 | 56 nM (antagonist) | > 500 nM
22 | Cc1nn(C)c(Cl)c1CNC[C@H]1CC[C@H]2CN(c3nc(N)n4nc(-c5ccco5)nc4n3)CCN2C1 | 30 nM (antagonist) | > 500 nM
23 | Nc1nc(N2CCN3C[C@H](COc4cccc(F)c4)CC[C@H]3C2)nc2nc(-c3ccco3)nn12 (mixture of isomers) | 53 nM (antagonist) | 960 nM (antagonist)
24 | Nc1cc(N2CCN3[C@@H](COc4ccc5[nH]ccc5c4)CCC[C@H]3C2)nc2nc(-c3ccco3)nn12 (racemic) | 76 nM (antagonist) | > 1000 nM
25 | Nc1nc(N2CCN3C[C@@H](Cn4cncn4)CC[C@H]3C2)nc2nc(-c3ccco3)nn12 (racemic) | 4 nM (antagonist) | > 500 nM
26 | Nc1nc(N2CCN3C[C@@H](CN(Cc4ccncc4)Cc4ccncc4)CC[C@H]3C2)nc2nc(-c3ccco3)nn12 (racemic) | 3 nM (antagonist) | 6000 nM
27 | Nc1nc(N2CCN3C[C@H](COc4ccncc4)CC[C@H]3C2)nc2nc(-c3ccco3)nn12 (racemic) | 81 nM (antagonist) | > 1000 nM
28 | Nc1cc(N2CCN3[C@@H](COc4ccc5cccnc5c4)CCC[C@H]3C2)nc2nc(-c3ccco3)nn12 (racemic) | 830 nM (antagonist) | > 500 nM
29 | Nc1nc(N2CCN3C[C@H](COc4ccccc4)CC[C@H]3C2)nc2nc(-c3ccco3)nn12 (racemic) | 53 nM (antagonist) | > 500 nM
30 | Nc1nc(N2CCN3C[C@@H](CNc4ncccn4)CC[C@H]3C2)nc2nc(-c3ccco3)nn12 (racemic) | 9 nM (antagonist) | 1500 nM
31 | Nc1nc(N2CCN3C[C@@H](Cn4cnnn4)CC[C@H]3C2)nc2nc(-c3ccco3)nn12 (racemic) | 14 nM (antagonist) | > 500 nM
32 | Nc1nc(N2CCN3C[C@@H](COc4ccc(F)cc4F)CC[C@H]3C2)nc2nc(-c3ccco3)nn12 (racemic) | 70 nM (antagonist) | > 500 nM
33 | Nc1cc(N2CCN3[C@@H](COc4cccnc4)CCC[C@H]3C2)nc2nc(-c3ccco3)nn12 (racemic) | 80 nM (antagonist) | > 500 nM
34 | Nc1nc(N2CCN3C[C@@H](COc4cccc5cnccc45)CC[C@H]3C2)nc2nc(-c3ccco3)nn12 (racemic) | 6 nM (antagonist) | 3500 nM
35 | Nc1nc(N2CCN3C[C@H](COc4ncnc5ccccc45)CC[C@H]3C2)nc2nc(-c3ccco3)nn12 (racemic) | 37 nM (antagonist) | > 1000 nM
36 | Nc1nc(N2CCN3C[C@@H](COc4cc5ccccc5cn4)CC[C@H]3C2)nc2nc(-c3ccco3)nn12 (racemic) | 36 nM (antagonist) | > 1000 nM
37 | Nc1nc(N2CCN3C[C@H](COc4cccc5cnccc45)CC[C@H]3C2)nc2nc(-c3ccco3)nn12 (racemic) | 73 nM (antagonist) | 210 nM (antagonist)
38 | Nc1nc(N2CCN3C[C@@H](COc4ncnc5ccccc45)CC[C@H]3C2)nc2nc(-c3ccco3)nn12 (racemic) | 19 nM (antagonist) | > 500 nM

Row | SMILES | Ki (Adenosine receptor A2a) | Ki (Adenosine receptor A1)
39 | Nc1nc(N2CCN3C[C@H](COc4cc5ccccc5cn4)CC[C@H]3C2)nc2nc(-c3ccco3)nn12 (racemic) | 130 nM (antagonist) | 710 nM (antagonist)
40 | Nc1nc(N2CCN3C[C@@H](COc4cccnc4)CC[C@H]3C2)nc2nc(-c3ccco3)nn12 (racemic) | 0.3 nM (antagonist) | 1400 nM
41 | Nc1nc(NC[C@@H]2CC[C@@H]3CN(Cc4ccc(F)cc4F)CCN3C2)nc2nc(-c3ccco3)nn12 (racemic) | 130 nM (antagonist) | > 500 nM
42 | Nc1nc(NC[C@H]2CC[C@@H]3CN(c4ncccn4)CCN3C2)nc2nc(-c3ccco3)nn12 (racemic) | 230 nM (antagonist) | > 1000 nM
43 | COc1ccc(OC[C@H]2CC[C@H]3CN(c4nc(N)n5nc(-c6ccco6)nc5n4)CCN3C2)cc1 (racemic) | 35 nM (antagonist) | > 500 nM
44 | Cn1nc(C(F)(F)F)c(CN2CCN3C[C@@H](CNc4nc(N)n5nc(-c6ccco6)nc5n4)CC[C@@H]3C2)c1Cl (racemic) | > 500 nM | > 1000 nM
45 | Nc1nc(N2CCN3C[C@@H](COc4ccccc4F)CC[C@H]3C2)nc2nc(-c3ccco3)nn12 (racemic) | 0.9 nM (antagonist) | > 500 nM
46 | Nc1nc(N2CCN3C[C@@H](COc4ccc(F)cc4)CC[C@H]3C2)nc2nc(-c3ccco3)nn12 (racemic) | 4 nM (antagonist) | > 500 nM
47 | COC(=O)c1nc(Cl)c(N2CCN3C[C@H](CNc4nc(N)n5nc(-c6ccco6)nc5n4)CC[C@@H]3C2)nc1N (racemic) | 34 nM (antagonist) | > 1000 nM
48 | Nc1nc(N2CCN3C[C@@H](CNCc4ccncc4)CC[C@H]3C2)nc2nc(-c3ccco3)nn12 (racemic) | 36 nM (antagonist) | > 500 nM
49 | Nc1nc(NC[C@@H]2CC[C@@H]3CN(c4cc(F)cc(F)c4)CCN3C2)nc2nc(-c3ccco3)nn12 (racemic) | 49 nM (antagonist) | > 500 nM
50 | Nc1nc(N2CCN3C[C@@H](COc4ncnc5[nH]ncc45)CC[C@@H]3C2)nc2nc(-c3ccco3)nn12 (racemic) | 5 nM (antagonist) | > 500 nM
51 | Nc1nc(N2CCN3C[C@@H](Cn4ccnc4)CC[C@H]3C2)nc2nc(-c3ccco3)nn12 (racemic) | 0.3 nM (antagonist) | 1200 nM
52 | Nc1nc(N2CCN3C[C@@H](COc4ccncc4)CC[C@H]3C2)nc2nc(-c3ccco3)nn12 (racemic) | 25 nM (antagonist) | > 1000 nM
53 | Nc1cc(N2CCN3C[C@@H](COc4ccccc4)CC[C@H]3C2)nc2nc(-c3ccco3)nn12 (racemic) | 45 nM (antagonist) | > 500 nM
54 | Nc1nc(N2CCN3[C@@H](COc4ccccc4)CCC[C@H]3C2)nc2nc(-c3ccco3)nn12 (racemic) | 13 nM (antagonist) | > 500 nM
55 | Nc1nc(N2CCN3C[C@H](COc4ccccn4)CC[C@H]3C2)nc2nc(-c3ccco3)nn12 (racemic) | 41 nM (antagonist) | > 500 nM
56 | COc1ccc(OC[C@@H]2CC[C@H]3CN(c4nc(N)n5nc(-c6ccco6)nc5n4)CCN3C2)cc1 (racemic) | 70 nM (antagonist) | > 500 nM
57 | Nc1nc(N2CCN3C[C@@H](COc4ccccn4)CC[C@H]3C2)nc2nc(-c3ccco3)nn12 (racemic) | 20 nM (antagonist) | > 1000 nM
